According to patent US8609674B2, “Potassium channel modulators” (AbbVie Inc., priority 2010, dated 2013):

Experiments:
Assay type in all cases: cell-based
[1] = biological target: T1, human KCNQ2 and KCNQ3 subunits (KCNQ2/3 channels) (Homo sapiens, UniProt O43525+O43526); test: KCNQ2/3 thallium influx FLIPR assay (BTC-AM dye); conditions: for EC50: HEK293 cells stably expressing human KCNQ2 and KCNQ3, Tl+ influx; for Emax: maximum response relative to 10 μM retigabine (=100%), read-out: KCNQ2/3 Max. %
T1 construct: expressed in transfected cells; host or cells: HEK293
Description: The following example describes the assay that may be used to identify compounds that activate KCNQ2/3 channels.
HEK293 cells stably expressing human KCNQ2 and KCNQ3 subunits were seeded in 96-well, black-walled, clear-bottomed, poly-D-lysine coated plates (BD Biosciences, Bedford, Mass.) at a density of 1×10^5 cells per well 24 hours before the assay. On the assay day, BTC-AM dye (Invitrogen, Carlsbad, Calif.) was loaded into the cells by replacing the cell culture medium with 55 μL/well of 3 μg/ml dye in Dulbecco's Phosphate Buffered Saline (DPBS) (Invitrogen). Dye loading was allowed to proceed for 2 hours at room temperature and then cells were washed twice with 50 μL/well of assay buffer (in mM: 10 HEPES pH 7.3, 5 glucose, 140 Na-gluconate, 2.5 K-gluconate, 3.6 Ca-gluconate, 2 MgSO4, 0.1 Ouabain) to remove unloaded dye. Cells were incubated in 50 μL of assay buffer before loading onto a FLIPR system (Molecular Devices, Sunnyvale, Calif.). Various concentrations of compounds to be assayed were added to the cells in 50 μL of assay buffer and incubated for 4 minutes. The fluorescence signal was initiated by adding 100 μL of assay buffer containing 6 mM TlNO3 and 10 mM K2SO4. Fluors were excited using the 488-nm line of an argon laser and emission was filtered using a 540±30 nm bandpass filter. Fluorescent signals were recorded for 3 minutes. Sums of the responses over basal responses were plotted versus concentrations of test compounds to obtain an EC50 value and the points fit with a nonlinear regression curve using GraphPad Prism software (GraphPad Software Inc., San Diego, Calif.). EC50 values were calculated from the resulting sigmoidal dose-response curves. The maximum response for each test compound was determined relative to the response produced by 10 μM retigabine. The maximum response of retigabine at 10 μM was set at 100%.

human KCNQ4 = biological target: T2, human KCNQ4 (Homo sapiens, UniProt P56696); test: KCNQ4 thallium influx FLIPR TETRA assay; conditions: for EC50: HEK293 cells stably expressing human KCNQ4, Tl+ influx; for Emax: maximum response relative to 10 μM retigabine (=100%), read-out: KCNQ4 Max. %
T2 construct: expressed in transfected cells; host or cells: HEK293
Description: (§1) The following example describes the assay that may be used to identify compounds that activate KCNQ4 or KCNQ5 channels.
(§2) The assays were performed using a FLIPR^TETRA (Molecular Devices, Sunnyvale, Calif.) in 384-well format. HEK293 cells stably expressing human KCNQ4 or KCNQ5 were seeded in 384-well, black-walled, clear-bottomed, poly-D-lysine coated plates (Greiner Bio-One, Germany) at a density of 1.5×10^4 cells per well, 24 hours before the assay. On the assay day, BTC-AM dye was loaded into the cells by replacing the cell culture medium with 30 μL/well of 2.8 μM dye in DPBS. Dye loading was allowed to proceed for 2 hours at room temperature and then cells were washed once in 30 μL/well of assay buffer (in mM: 10 HEPES pH 7.3, 5 glucose, 140 Na-gluconate, 2.5 K-gluconate, 3.6 Ca-gluconate, 2 MgSO4, 0.1 Ouabain) to remove unloaded dye. Cells were incubated in 30 μL of assay buffer before loading onto a FLIPR^TETRA system. Compounds to be assayed were added to the cells as 4× of final concentration in 15 μL of assay buffer and incubated for 4 minutes at room temperature. The influx signal was initiated by adding 15 μL of assay buffer containing 4.2 mM TlNO3 and 7 mM K2SO4. Tl^+ influx signals were recorded for 3 minutes. Tl^+ influx signal was quantified as light unit changes after Tl^+ addition using the “SUM” statistic from the FLIPR^TETRA software. Sums of the responses over basal responses were plotted versus concentrations of test compounds to obtain an EC50 value and the points fit with a nonlinear regression curve using GraphPad Prism software (GraphPad Software Inc., San Diego, Calif.). EC50 values were calculated from the resulting sigmoidal dose-response curves. The maximum response for each test compound was determined relative to the response produced by 10 μM retigabine. The maximum response of retigabine at 10 μM was set at 100%.

human KCNQ5 = biological target: T3, human KCNQ5 (Homo sapiens, UniProt Q9NR82); test: KCNQ5 thallium influx FLIPR TETRA assay; conditions: for EC50: HEK293 cells stably expressing human KCNQ5, Tl+ influx; for Emax: maximum response relative to 10 μM retigabine (=100%), read-out: KCNQ5 Max. %
T3 construct: expressed in transfected cells; host or cells: HEK293
Description: as §1, §2

EC50 [1] [µM]	Emax [1] [%]	EC50 (human KCNQ4) [µM]	Emax (human KCNQ4) [%]	EC50 (human KCNQ5) [µM]	Emax (human KCNQ5) [%]	Compound
> 30	8	> 30	4	> 30	19	CC(C)c1nc2ccc(Cl)cc2c(=O)n1NC(=O)C[C@@H]1CC[C@H]2C[C@@H]1C2(C)C [Example 18, N-[6-chloro-4-oxo-2-(propan-2-yl)quinazolin-3(4H)-yl]-2-[(1S,2S,5S)-6,6-dimethylbicyclo[3.1.1]hept-2-yl]acetamide]
1 to 10	99	> 30	5	> 30	9	CCc1nc2sccc2c(=O)n1NC(=O)C[C@@H]1CC[C@H]2C[C@@H]1C2(C)C [Example 6, 2-[(1S,2S,5S)-6,6-dimethylbicyclo[3.1.1]hept-2-yl]-N-(2-ethyl-4-oxothieno[2,3-d]pyrimidin-3(4H)-yl)acetamide]
< 0.1	25	> 30	-43	> 30	88	CC(C)c1nc2ccccc2c(=O)n1NC(=O)C[C@@H]1[C@H](F)C[C@H]2C[C@@H]1C2(C)C [Example 24, 2-[(1S,2S,3R,5R)-3-fluoro-6,6-dimethylbicyclo[3.1.1]hept-2-yl]-N-[4-oxo-2-(propan-2-yl)quinazolin-3(4H)-yl]acetamide]
0.1 to 0.5	155	0.1 to 0.5	229	0.1 to 0.5	633	CC(C)c1nc2ccccc2c(=O)n1NC(=O)C[C@H]1C[C@H]2C[C@@H](C1F)C2(C)C (stereo partly drawn) [Example 23, 2-[(1R,3R,5S)-2-fluoro-6,6-dimethylbicyclo[3.1.1]hept-3-yl]-N-[4-oxo-2-(propan-2-yl)quinazolin-3(4H)-yl]acetamide]
0.1 to 0.5	49	> 30	23	> 30	49	CC(SC[C@@H]1CC[C@H]2C[C@@H]1C2(C)C)C(=O)Nn1c(C(C)C)nc2ccccc2c1=O (stereo partly drawn) [Example 9, 2-({[(1S,2R,5S)-6,6-dimethylbicyclo[3.1.1]hept-2-yl]methyl}sulfanyl)-N-[4-oxo-2-(propan-2-yl)quinazolin-3(4H)-yl]propanamide]
0.1 to 0.5	111	1 to 10	46	> 30	10	CC(C)c1nc2sccc2c(=O)n1NC(=O)C[C@@H]1CC[C@H]2C[C@@H]1C2(C)C [Example 20, 2-[(1S,2S,5S)-6,6-dimethylbicyclo[3.1.1]hept-2-yl]-N-[4-oxo-2-(propan-2-yl)thieno[2,3-d]pyrimidin-3(4H)-yl]acetamide]
0.1 to 0.5	123	1 to 10	293	> 30	714	CC(C)c1nc2ccccc2c(=O)n1NC(=O)CCSC[C@@H]1CC[C@H]2C[C@@H]1C2(C)C [Example 11, 3-({[(1S,2R,5S)-6,6-dimethylbicyclo[3.1.1]hept-2-yl]methyl}sulfanyl)-N-[4-oxo-2-(propan-2-yl)quinazolin-3(4H)-yl]propanamide]
> 30	3	> 30	1	> 30	12	CC1(C)[C@H]2CC[C@@H](CC(=O)Nn3c(C4CC4)nc4cc(C(F)(F)F)ccc4c3=O)[C@@H]1C2 [Example 4, N-[2-cyclopropyl-4-oxo-7-(trifluoromethyl)quinazolin-3(4H)-yl]-2-[(1S,2S,5S)-6,6-dimethylbicyclo[3.1.1]hept-2-yl]acetamide]
0.1 to 0.5	93	> 30	-23	> 30	15	CC(C)c1nc2ccccc2c(=O)n1NC(=O)C[C@@H]1C[C@@H]2C[C@H](C1)C2(C)C [Example 25, 2-[(1R,3s,5S)-6,6-dimethylbicyclo[3.1.1]hept-3-yl]-N-[4-oxo-2-(propan-2-yl)quinazolin-3(4H)-yl]acetamide]
1 to 10	144	> 30	6	> 30	13	CC1(C)[C@H]2CC[C@@H](CC(=O)Nn3cnc4ccccc4c3=O)[C@@H]1C2 [Example 16, 2-[(1S,2S,5S)-6,6-dimethylbicyclo[3.1.1]hept-2-yl]-N-(4-oxoquinazolin-3(4H)-yl)acetamide]
< 0.1	179	1 to 10	255	1 to 10	857	CC(C)c1nc2ccccc2c(=O)n1NC(=O)CC1CC2CC1C2 (racemic) [Example 22, (±)-2-(bicyclo[2.1.1]hex-2-yl)-N-[4-oxo-2-(propan-2-yl)quinazolin-3(4H)-yl]acetamide]
< 0.1	73	> 30	8	> 30	21	CC(C)c1nc2ccc(F)cc2c(=O)n1NC(=O)C[C@@H]1CC[C@H]2C[C@@H]1C2(C)C [Example 13, 2-[(1S,2S,5S)-6,6-dimethylbicyclo[3.1.1]hept-2-yl]-N-[6-fluoro-4-oxo-2-(propan-2-yl)quinazolin-3(4H)-yl]acetamide]
< 0.1	105	> 30	27	> 30	-10	CC1(C)[C@H]2CC[C@@H](CC(=O)Nn3c(CC(F)(F)F)nc4ccccc4c3=O)[C@@H]1C2 [Example 14, 2-[(1S,2S,5S)-6,6-dimethylbicyclo[3.1.1]hept-2-yl]-N-[4-oxo-2-(2,2,2-trifluoroethyl)quinazolin-3(4H)-yl]acetamide]
1 to 10	121	> 30	122	> 30	335	CC(C)c1nc2ccccc2c(=O)n1NC(=O)COCC[C@@H]1CC[C@H]2C[C@@H]1C2(C)C [Example 10, 2-{2-[(1S,2S,5S)-6,6-dimethylbicyclo[3.1.1]hept-2-yl]ethoxy}-N-[4-oxo-2-(propan-2-yl)quinazolin-3(4H)-yl]acetamide]
0.1 to 0.5	149	> 30	41	> 30	136	CC(C)c1nc2ccccc2c(=O)n1NC(=O)CSC[C@@H]1CC[C@H]2C[C@@H]1C2(C)C [Example 12, 2-({[(1S,2R,5S)-6,6-dimethylbicyclo[3.1.1]hept-2-yl]methyl}sulfanyl)-N-[4-oxo-2-(propan-2-yl)quinazolin-3(4H)-yl]acetamide]
0.1 to 0.5	58	> 30	6	> 30	52	CC1(C)[C@H]2CC[C@@H](CC(=O)Nn3c(C(F)(F)F)nc4ccccc4c3=O)[C@@H]1C2 [Example 7, 2-[(1S,2S,5S)-6,6-dimethylbicyclo[3.1.1]hept-2-yl]-N-[4-oxo-2-(trifluoromethyl)quinazolin-3(4H)-yl]acetamide]
